Test: Oral pharmacokinetics of TAF alone or in combination with dolutegravir in male beagle dogs (plasma, LC/MS)
Conditions: dog; for half-life: T1/2 (estimated terminal elimination half-life)
Procedure: TAF was dosed at 5 mg/kg (as free base) orally in solution to fasted male beagle dogs (N=6 animals, mean weight 10 kg). On Day 1, TAF was administered alone. On days 2, 3, 4 and 5, 3 mg/kg of Dolutegravir (DTG) was administered alone (as free acid). Both compounds were administered on Day 6. The plasma pharmacokinetic profiles of TAF and its nucleotide metabolite tenofovir (TFV) were determined by LC/MS in samples taken on Day 1 and Day 6 of dosing.
The oral dosing formulation for TAF was 0.1% Hydroxypropylmethylcellulose K100LV, 0.1% Polysorbate 20, 99.8% deionized water. For dolutegravir, the oral dosing formulation was 0.5% Hydroxypropylmethylcellulose LV 100 and 0.1% Tween 20 in deionized water.
The animals were fasted overnight prior to each dose administration and up to 4 hr after dosing. The blood samples were collected on days 1 and 6 predose and at the following time points following dosing: 0.25, 0.5, 1, 2, 4, 6, 8, 12 and 24 hour. The blood samples were collected into Vacutainer™ tubes containing Sodium Fluoride/Potassium Oxalate (BD Biosciences). The blood samples were centrifuged at 4° C. to separate plasma. Plasma samples were frozen and stored in −70° C. freezers.
Plasma was prepared by protein precipitation by adding acetonitrile to a final concentration of 70% in the presence of internal standard. Following filtration to remove precipitated protein, samples were evaporated, reconstituted with mobile phase A (0.2% formate in water) and analyzed using injections of 5 μl for analysis.

[1] = Day 6 (TAF + DTG) versus Day 1 (TAF alone)
[2] = male, beagle, in vivo, po, 5 mg/kg, TAF in plasma, Day 1, TAF 5 mg/kg oral alone, fasted male beagle dogs, mean n=6
[3] = male, beagle, in vivo, po, 5 mg/kg, TAF in plasma, Day 6, TAF 5 mg/kg oral co-administered with DTG 3 mg/kg after 4 daily doses of DTG, male beagle dogs, mean n=6
[4] = male, beagle, in vivo, po, 5 mg/kg

| SMILES | increase of maximal concentrations (Cmax) of TAF upon coadministration with DTG [1] | increase of oral exposure of TAF upon coadministration with DTG [1] | AUC(0-t) (male, beagle, in vivo, po, 5 mg/kg, AUC0-24hr, TAF in plasma, Day 1, TAF 5 mg/kg oral alone, fasted male beagle dogs, mean n=6) | AUC(0-t) (male, beagle, in vivo, po, 5 mg/kg, AUC0-24hr, TAF in plasma, Day 6, TAF 5 mg/kg oral co-administered with DTG 3 mg/kg after 4 daily doses of DTG, male beagle dogs, mean n=6) | Cmax [2] | Cmax [3] | half-life [2] | Tmax [2] | Tmax [3] | TFV levels in Day 1 pre-dose plasma samples (male, beagle, in vivo) | AUC(0-t) [4] | AUC(0-inf) (male, beagle, in vivo, po, 5 mg/kg, AUC0-inf) | Cmax [4] | half-life [4] | Tmax [4] |
| --- | --- | --- | --- | --- | --- | --- | --- | --- | --- | --- | --- | --- | --- | --- | --- |
| CC(C)OC(=O)[C@H](C)N[P@](=O)(CO[C@H](C)Cn1cnc2c(N)ncnc21)Oc1ccccc1 [TAF, 9-[(R)-2-[[(S)-[[(S)-1-(isopropoxycarbonyl)ethyl]amino]phenoxyphosphinyl]-methoxy]propyl]adenine] | approximately 2 fold | approximately 2 fold | 0.174 µM·h | 0.345 µM·h | 412 nM | 818 nM | 11.4 min | 17.4 min | 15 min |  |  |  |  |  |  |
| C[C@H](Cn1cnc2c(N)ncnc21)OCP(=O)(O)O [TFV, Tenofovir] |  |  |  |  |  |  |  |  |  | < 10 nM | 1.6 µM·h | 2.92 µM·h | 253 nM | 1500 min | 75 min |

Reference: patent US20160067255A1, “METHODS OF TREATING OR PREVENTING HIV IN PATIENTS USING A COMBINATION OF TENOFOVIR ALAFENAMIDE AND DOLUTEGRAVIR” (priority 2014, published 2016)
